Assay: xn = mol fraction of the nth substance listed
Settings: 101 kPa, Liquid, Vibrating tube method

[2H]C(C)O (stereo not given) [ethanol-1-d] + [2H]O[2H]
mass density [kg/m3]
Settings	278.15 K	288.15 K	298.15 K	308.15 K	318.15 K
x2 = 0.001004	819.11	810.48	801.72	792.83	783.78
x2 = 0.00168	819.21	810.58	801.83	792.94	783.89
x2 = 0.00308	819.43	810.8	802.05	793.15	784.1
x2 = 0.005192	819.67	811.12	802.37	793.47	784.42
x2 = 0.008159	820.22	811.58	802.83	793.93	784.87
x2 = 0.01089	820.65	812.01	803.25	794.34	785.28
x2 = 0.01426	821.17	812.53	803.76	794.86	785.79
x2 = 0.0173	821.64	813	804.23	795.32	786.25
x2 = 0.02028	822.1	813.46	804.69	795.77	786.7
x2 = 0.02325	822.56	813.91	805.14	796.22	787.14
x2 = 0.02639	823.05	814.4	805.62	796.7	787.61
x2 = 0.03026	823.65	814.99	806.21	797.28	788.19
x2 = 0.03472	824.23	815.57	806.78	797.85	788.76
x2 = 0.03723	824.72	816.06	807.27	798.33	789.23

CCO [ethanol] + O
mass density [kg/m3]
Settings	278.15 K	288.15 K	298.15 K	308.15 K	318.15 K
x2 = 0.0009961	802.2	793.72	785.15	776.47	767.66
x2 = 0.002144	802.34	793.86	785.29	776.61	767.79
x2 = 0.004143	802.59	794.1	785.53	776.85	768.03
x2 = 0.00674	802.91	794.42	785.85	777.16	768.34
x2 = 0.009286	803.22	794.73	786.16	777.47	768.65
x2 = 0.01189	803.54	795.06	786.48	777.79	768.96
x2 = 0.01442	803.85	795.37	786.79	778.09	769.26
x2 = 0.01794	804.29	795.8	787.22	778.52	769.69
x2 = 0.02115	804.68	796.2	787.61	778.92	770.08
x2 = 0.02506	805.17	796.68	788.1	779.4	770.56
x2 = 0.0292	805.69	797.2	788.61	779.91	771.06
x2 = 0.03125	805.94	797.46	788.87	780.16	771.31
x2 = 0.0336	806.24	797.75	789.16	780.45	771.6
x2 = 0.03661	806.61	798.13	789.54	780.83	771.97

— the NIST ThermoML archive (doi:10.1016/j.jct.2011.10.009)
